# Reference: PMC4061482 (Frontiers in Oncology, 2014)
# How the values were obtained:
# LAPC4 AKR1C3 cells [1] = test: PSA concentration after androstenedione stimulation; format: cell-based; settings: Homo sapiens, LAPC4, 24 h, read-out: Inhibition of PSA formation attributable to androstenedione stimulation
# Description: (§1) Cells were seeded at 20,000 cells per well (LAPC4, LAPC4 AKR1C3) or 50,000 cells per well (22RV1) into 96-well plates in hormone-deprived media and left to settle for 24 h at 37°C and 5% CO2. […] The plates were returned to the incubator for 24 h, before the cell supernatant was removed and frozen for PSA analysis. Determination of total PSA concentration was carried out at LabPLUS, Auckland City Hospital, by immunoassay on a Cobas® e601 analyzer according to manufacturer’s instructions (Roche).
# (§2) Next, PSA expression was determined in the CRPC cell lines that were sensitive to SN33638-mediated inhibition of testosterone (LAPC4 AKR1C3 and 22RV1 with LAPC4 wild-type cells acting as a negative control) as a biomarker of AR activity. […] Androstenedione stimulation promoted PSA production in all three cell lines, with the highest PSA levels observed in LAPC4 AKR1C3 cells.
# 22RV1 cells = test: as above; format: cell-based; settings: Homo sapiens, 10 nM androstenedione, 24 h, read-out: Inhibition of PSA formation attributable to androstenedione stimulation
# Description: as §1, §2
# LAPC4 AKR1C3 cells [2] = test: Testosterone ELISA after androstenedione stimulation; format: cell-based; settings: Homo sapiens, 28 nM androstenedione, 24 h, read-out: Inhibition of testosterone levels
# Description: (§3) Cells were seeded into 96-well plates in hormone-deprived media at appropriate seeding densities [10,000–50,000 cells per well for all lines except HCC1500 (100,000 cells per well; 11β-PGF2α ELISA)] to reach approximately 70% confluency at the time of sampling and were left to settle for 24 h at 37°C and 5% CO2. Inhibitors were added to the plates at single or multiple concentrations for 1 h prior to administration of equimolar (28 nM) concentrations of PGD2 (11β-PGF2α ELISA), androstenedione (testosterone ELISA), or estrone (17β-estradiol ELISA). […] Each ELISA plate was read at a wavelength of 405 nm (11β-PGF2α and testosterone) or 650 nM (17β-estradiol) on a SpectraMax M2 microplate reader (Molecular Devices) and quantitated against a standard curve generated in hormone-deprived culture media. […]
# (§4) Since AKR1C3 has been implicated in the development of CRPC because of its ability to produce testosterone intratumorally from circulating androstenedione, we determined testosterone concentrations in the prostate cancer cell lines and known high and low AKR1C3-expressing cells after stimulation with androstenedione for 24 h. […]
# NCI-H460 cells = test: 17β-estradiol ELISA after estrone stimulation; format: cell-based; settings: Homo sapiens, 28 nM estrone, 24 h, read-out: Inhibition of 17β-estradiol formation
# Description: Cells were seeded into 96-well plates in hormone-deprived media at appropriate seeding densities [10,000–50,000 cells per well for all lines except HCC1500 (100,000 cells per well; 11β-PGF2α ELISA)] to reach approximately 70% confluency at the time of sampling and were left to settle for 24 h at 37°C and 5% CO2. Inhibitors were added to the plates at single or multiple concentrations for 1 h prior to administration of equimolar (28 nM) concentrations of PGD2 (11β-PGF2α ELISA), androstenedione (testosterone ELISA), or estrone (17β-estradiol ELISA). The plates were returned to the incubator for a further 24 h before cell supernatant was removed for analysis of 11β-PGF2α, testosterone, or 17β-estradiol by ELISA as per manufacturer’s instructions (11β-PGF2α and testosterone ELISA, Cayman Chemical Company; 17β-estradiol ELISA, Oxford Biomedical Research), and cells were fixed for sulforhodamine B analysis as described below. Each ELISA plate was read at a wavelength of 405 nm (11β-PGF2α and testosterone) or 650 nM (17β-estradiol) on a SpectraMax M2 microplate reader (Molecular Devices) and quantitated against a standard curve generated in hormone-deprived culture media. Cross-reactivity to PGD2, androstenedione, or estrone was accounted for by adding these to cell-free wells of each ELISA plate. […]
# AKR1C3 = system: AKR1C3; set-up: method as in PMID 23454516; settings: cited from earlier work
# T47D cells = test: 17β-estradiol ELISA after estrone stimulation; format: cell-based, human; settings: 10 μM; 28 nM estrone, 24 h
# Description: (§5) Cells were seeded into 96-well plates in hormone-deprived media at appropriate seeding densities [10,000–50,000 cells per well for all lines except HCC1500 (100,000 cells per well; 11β-PGF2α ELISA)] to reach approximately 70% confluency at the time of sampling and were left to settle for 24 h at 37°C and 5% CO2. Inhibitors were added to the plates at single or multiple concentrations for 1 h prior to administration of equimolar (28 nM) concentrations of PGD2 (11β-PGF2α ELISA), androstenedione (testosterone ELISA), or estrone (17β-estradiol ELISA). The plates were returned to the incubator for a further 24 h before cell supernatant was removed for analysis of 11β-PGF2α, testosterone, or 17β-estradiol by ELISA as per manufacturer’s instructions (11β-PGF2α and testosterone ELISA, Cayman Chemical Company; 17β-estradiol ELISA, Oxford Biomedical Research), and cells were fixed for sulforhodamine B analysis as described below. Each ELISA plate was read at a wavelength of 405 nm (11β-PGF2α and testosterone) or 650 nM (17β-estradiol) on a SpectraMax M2 microplate reader (Molecular Devices) and quantitated against a standard curve generated in hormone-deprived culture media. Cross-reactivity to PGD2, androstenedione, or estrone was accounted for by adding these to cell-free wells of each ELISA plate.
# (§6) 17β-estradiol is predominantly produced from estrone by 17β-HSD1 in breast tissue in post-menopausal women ([44]). Although less catalytically efficient than 17β-HSD1, AKR1C3 can also convert estrone to 17β-estradiol ([10], [12], [14]), and therefore, may play a role in ER-positive breast cancer development. To investigate the activity of AKR1C3 in 17β-estradiol production, ER-positive breast cancer cells and known high and low AKR1C3-expressing cells were stimulated with estrone for 24 h prior to determination of 17β-estradiol levels by ELISA.
# T47D AKR1C3 cells = test: 17β-estradiol ELISA after estrone stimulation; format: cell-based, human; settings: 10 μM; 28 nM estrone, 24 h
# Description: as §5, §6
# MCF7 cells = test: 17β-estradiol ELISA after estrone stimulation; format: cell-based, human; settings: Homo sapiens, MCF7; 10 μM; 28 nM estrone, 24 h; read-out: Inhibition of 17β-estradiol formation
# Description: as §5, §6
# all cell lines = test: Unstimulated cell proliferation (sulforhodamine B), 5 days, all cell lines; format: cell-based, human; settings: 10 μM, all cell lines except MCF7
# Description: Cells were seeded into 96-well plates in hormone-deprived media at appropriate seeding densities (5000–20,000 cells per well) to reach approximately 70% confluency at the time of sampling and left to settle for 48 h at 37°C and 5% CO2. […] The plates were returned to the incubator for 5 days before fixing in 10% trichloroacetic acid (Merck Millipore) at 4°C for 1 h and staining with 0.4% sulforhodamine B (Sigma-Aldrich) in 1% acetic acid for 30 min in the dark at room temperature. Plates were washed in 1% acetic acid, dried, and incubated with unbuffered Tris base (10 mM; Serva) for 30 min on a plate shaker in the dark to solubilize the stain. The plates were read on a BioTek EL808 microplate reader at an absorbance of 490 nm with a reference wavelength of 450 nm.
# Finally, we investigated whether inhibiting AKR1C3-dependent testosterone or 17β-estradiol production could prevent androstenedione- or estrone-stimulated cell proliferation in CRPC or ER-positive breast cancer cells.
# LNCaP cells = test: Testosterone ELISA after androstenedione stimulation; format: cell-based, human; settings: 10 μM; 28 nM androstenedione, 24 h; P < 0.05
# Description: as §3, §4
smiles,measurement,setting,value
CC1CCCCN1S(=O)(=O)c1ccc(N2CCCC2=O)cc1 (centres unmarked) [SN33638],inhibition at 10 µM,LAPC4 AKR1C3 cells [1]; 1 nM androstenedione,90.8%
same,inhibition at 10 µM,LAPC4 AKR1C3 cells [1]; 10 nM androstenedione,57.4%
same,inhibition at 10 µM,22RV1 cells,44.9%
same,inhibition at 10 µM,LAPC4 AKR1C3 cells [2],96.8%
same,inhibition at 10 µM,NCI-H460 cells,39.6%
same,Potency against AKR1C3,AKR1C3,low nanomolar
same,Effect on 17β-estradiol levels,T47D cells,no effect
same,Effect on 17β-estradiol levels,T47D AKR1C3 cells,no effect
same,inhibition at 10 µM,MCF7 cells,16%
same,Effect on unstimulated cell proliferation,all cell lines,no effect
same,Effect on testosterone levels,LNCaP cells,significantly increased
